This is an account of results in US20230192660A1 (priority 2020, published 2023).

≈ marks a conversion by molar mass, not a printed value. Like-named read-outs stand apart in the source and are kept apart here.

One data set is described as follows: physchem. The note with it: aqueous buffer, kinetic from dmso stock.
The nature of data set [1]: in vitro. The following applies: mouse, plasma.
A short description of data set [2]: in vitro. The note with it: human, Caco-2.
For data set [3] the following is noted: after a maximal 800 mg oral dose; cited from earlier work.
The nature of data set [4]: in vitro. The following applies: human, Caco-2. The source holds these as a separate data set.
Another data set concerns the target MHV M^pro (UniProt P0C6X9). The data set can be described thus: In-vitro Mpro inhibition assay, MHV enzyme. It counts as biochemical, mouse hepatitis virus (MHV).
For a further data set, the target named is Human Cathepsin L (Homo sapiens, UniProt P07711). The data set can be described thus: biochemical. The following applies: 0.01 ng/uL Cathepsin L, pH 5.5, 2 mM DTT; read-out: IC50 HCathepsin L.
Sequence of Human Cathepsin L (P07711 114-333): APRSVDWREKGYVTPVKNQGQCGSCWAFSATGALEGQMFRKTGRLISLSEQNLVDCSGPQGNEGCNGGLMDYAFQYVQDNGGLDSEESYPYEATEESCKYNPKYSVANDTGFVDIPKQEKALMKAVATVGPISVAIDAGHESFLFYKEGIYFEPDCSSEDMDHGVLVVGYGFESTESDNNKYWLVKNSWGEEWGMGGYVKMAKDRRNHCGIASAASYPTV
The nature of data set [5]: in vitro. The following applies: human.
Data set [6] is described as follows: in vitro. The note with it: human plasma.
For another data set, the target named is Human Cathepsin B (Homo sapiens, UniProt P07858). The data set can be described thus: Cathepsin B protease specificity assay (Z-LR-AMC substrate). It counts as biochemical. The note with it: 0.05 ng/uL Cathepsin B, pH 5.5, 2 mM DTT; read-out: IC50 HCathepsin B.

Sequence of MHV M^pro (P0C6X9 3334-3635): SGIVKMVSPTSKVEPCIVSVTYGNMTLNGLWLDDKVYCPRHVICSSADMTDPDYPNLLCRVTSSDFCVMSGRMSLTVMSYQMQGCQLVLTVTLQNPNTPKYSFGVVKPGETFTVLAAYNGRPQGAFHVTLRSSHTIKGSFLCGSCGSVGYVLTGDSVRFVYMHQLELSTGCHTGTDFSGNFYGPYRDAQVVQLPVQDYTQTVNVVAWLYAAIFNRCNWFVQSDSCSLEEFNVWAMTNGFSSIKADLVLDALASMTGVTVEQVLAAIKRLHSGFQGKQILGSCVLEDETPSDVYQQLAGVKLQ

In the case of `CC(C)(C)NC(=O)N[C@H](C(=O)N1C[C@H]2[C@@H]([C@H]1C(=O)NC(CC1CCC1)C(=O)C(N)=O)C2(C)C)C(C)(C)C` (stereo partly drawn) [Boceprevir, boceprevir, reference compound], the solubility (kinetic) (in general, solubility judged after dilution from a stock solution rather than from solid) in the data set “physchem” worked out at 73 µM (≈ 37.9 µg/mL). The results for the half-life in “in vitro [1]” and in “in vitro [6]” were 0.467 h and 8.25 h, respectively. The apical-to-basolateral permeability (Papp A→B) – broadly, the apparent permeability from the apical to the basolateral side of a cell layer – in the data set “in vitro [2]” is 2 ×10⁻⁶ cm/s. The Papp B→A (as a rule, the apparent permeability from the basolateral to the apical side of a cell layer) in “in vitro [2]” was determined as 29 ×10⁻⁶ cm/s. Also, the peak plasma concentration in [3] is 3 µM. Further, the CC50 in “in vitro [4]” and in the data set “in vitro [5]” was above 100 µM throughout. Besides, the IC50 (as a rule, the concentration that inhibits the measured activity by half) amounted to 15 µM at MHV M^pro (100 nM MHV Mpro, read-out: IC50 MHV Mpro); 15 ± 7 µM at MHV M^pro (read-out: IC50, 100 nM mature MHV M^pro at 30° C., 100 nM enzyme, 30° C.); 0.4 µM on Human Cathepsin L; 4.5 µM at Human Cathepsin B.
